Data from patent US8258173B2, “Melatonin derivatives and their use as antioxidants” (University of Sunderland, priority 2006, dated 2012).
Like-named read-outs stand apart in the source and are kept apart here.

Legend:
[1] = system: HPV-16 immortalized human keratinocyte cell line; assay: Cell line test (MTT), keratinocyte proliferation; type: cell-based; conditions: for IC50: read-out: MTT assay IG50; for anti-proliferative activity (in words): HPV-16 immortalized keratinocyte proliferation
Source text: 3-[4′,5′-Dimethylthiazol-2′-yl]-2,5-diphenyltetrazolium bromide (MTT), dimethyl sulphoxide (DMSO), isopropranol, foetal calf serum, and trypan blue were purchased from Sigma-Aldrich. Trypsin 250 was purchased from DIFCO. Ethylenediaminetetraacetic acid (EDTA), glucose, sodium phenol red, sodium chloride, potassium chloride, sodium hydrogen carbonate, potassium dihydrogen phosphate, and disodium hydrogen phosphate were purchased from BDH. Keratinocyte-SFM was purchased from GIBCO. For spectroscopic measurements, MRX Microplate Reader was used, which was controlled by Revelation Version 3.04.
The following solutions were prepared for use in the cell line test (MTT). • 1. Sodium chloride (8 g), potassium chloride (0.2 g), disodium hydrogen phosphate (1.15 g) and potassium dihydrogen phosphate (0.2 g) were dissolved in deionized water (1 L). This PBS solution was warmed to 37° C. at the time of use. • 2. Trypsin 250 (2.5 g), EDTA (0.2 g), glucose (1.0 g), potassium chloride (0.4 g), sodium chloride (8.0 g), sodium phenol red (0.002 g), and sodium hydrogen carbonate (0.58 g) were dissolved in deionized water (1 L). This solution was warmed to 37° C. at the time of use. • 3. Trypsin inhibitor solution was created by using feotal calf (1 ml) and was diluted in 100 ml of PBS. • 4. MTT powder (0.125 g) was dissolved in PBS buffer (25 ml) to give 5 mg/ml of MTT stock solution, which was stored at −20° C. and wrapped in foil to protect from light to create MTT stock solution. • 5. MTT stock solution was defrosted and diluted 1 in 10 in PBS buffer to give 0.5 mg/ml of working solution, which was prepared at the time of use to create an MTT working solution. • 5. Trypan blue solution was created by dissolving Trypan blue (0.04 g) in deionized water (10 ml).
The cell culture consisted of an HPV-16 immortalized human keratinocyte cell line from American Type Culture Collection (ATCC).
Cells were cultured in Serum-Free Keratinocyte Medium (Keratinocyte-SFM) supplemented with recombinant epidermal growth factor (rEGF) and bovine pituitary extract (BPE) in a T-75 flask under conditions of 5% C02 at 37° C. Fluid in the flask was changed with fresh complete medium every 3 days.
When cells grew to 60-80% confluence as determined under a microscope, the flask was washed with PBS. Small amount of trypsin-EDTA solution (1-2 ml) was added to the flask and incubated for 5 minutes at 37° C. When approximately 90% of the cells were dislodged, trypsin inhibitor solution (10 ml) was added to stop trypsin reaction. The cells were spun at 500 rpm for 10 minutes at room temperature. The cell pellet was gently resuspended in 10 ml of media. The basal cells were counted with a haemocytometer by adding trypan blue solution to determine viable cells. The cells were adjusted the density to 1×10^5 cells/mL in media.
A stock solution of each compound was prepared by dissolving compound (20 mg) in DMSO (1 ml), to give 20 mg/mL of stock solution.
A working solution was prepared by diluting a stock solution (20 μl) into media (1.98 ml) to give 200 μg/mL of working solution.
The following steps were performed to carry out the MMT experiment. 100 μl of resuspended cell suspension was added to test wells in 96-well plate, omitting column 11. Media was aspirated from each well after plate was incubated for 24 hours at 37° C., 5% CO2, then wells were washed with PBS. 100 μl of media containing 1% DMSO was added to each test well, omitting column 2. 200 μl of working solution of compound was added to each the wells, B2 to G2. 100 μl of solution was transferred to perform serial dilutions across the plate from column 2 up to column 9, and 100 μl of solution was discard from column 9. The plate was incubated for 3 days at 37° C., 5% C02. Media was removed, and wells were washed with PBS. Then 200 μl of MTT working solution was added to each well. After the plate was incubated for 2 hours at 37° C., MTT solution was removed and wells were washed with PBS. […]

[2] = system: lipid peroxidation in bovine brain extract liposomes (hydroxyl radicals); assay: Antioxidant test, TBA assay (lipid peroxidation); type: biochemical; conditions: for IC50: brain extract liposomes, FeCl3/ascorbic acid, 37° C. 30 min, absorbance 532 nm; for antioxidant activity (in words): scavenging hydroxyl radicals, protection against lipid peroxidation
Procedure: Ascorbic acid and propylgallate were purchased from Aldrich. N-Butanol and ethanol were purchased from BDH. Butylated hydroxytoluene (BHT), bovine brain extract, FeCl3, thiobarbituric acid (TBA) and PBS (phosphate buffered saline) tablets were purchased from Sigma. For spectroscopic measurements, a UNICAM UVNIS Spectrometer (UV2) was used. A well-controlled water bath was utilized for incubating the test system at the required temperatures. Plastic falcon tubes were used to accommodate the assay. Accurate pipettes were used to dispense the reagents.
The following liposomes and reagents were prepared in order to carry out the experiments. • 1. Brain extract (50 mg) was weighed into a clean universal container. About 7 glass balls and 10 cm^3 of PBS were added. The mixture was sonicated in an ice-water bath until the lipid was suspended and the suspension was homogeneous and milky in appearance. The suspension was kept cool during the sonication, although care was taken not to overfill the bath with ice as the sonication becomes relatively ineffective. • 2. Ascorbic acid (0.0176 g) was dissolved in deionised water and diluted in 100 cm^3 of volumetric flask. • 3. Ferric chloride hexahydrate (0.0270 g) was dissolved in deionized water and diluted in 100 cm^3 of volumetric flask. • 4. Sodium hydroxide (1 g) was dissolved in 500 cm^3 of deionized water. • 5. Phosphate buffered saline was prepared (PBS, pH=7.4). • 6. HCl (338 cm^3, 37%) was diluted with 162 cm^3 deionized water to give 500 cm^3 of 25% HCl. • 7. BHT (5 g) was dissolved in 250 cm^3 ethanol. • 8. TBA (5 g) was added to 500 cm^3, 50 mM NaOH, and the solution was heated with stirring to dissolve all the TBA. • 9. PG (0.1061 g) was dissolved in 500 cm^3 deionized water. • 10. A stock solution of test compound at 10 mg/cm^3 was prepared, the concentration depended on the estimated activity of the substance, and serial dilutions were made to obtain 5.0, 2.5, 1.25, 0.625, 0.3125 and 0.15625 mg/cm^3. The stock solution and these six dilutions were screened in the lipid peroxidation—TEA test, in attempt to obtain a dose response curve for antioxidant efficacy against concentration for the substance.
Sixty-eight centrifuge tubes were numbered. • 1. Test substance (0.1 cm^3) was added to tubes; 10 mg/cm^3 to No. 13-20 of tubes, 5 mg/cm^3 to No. 21-28, 2.5 mg/cm^3 to No. 29-36, 1.25 mg/cm^3 to No. 37-44, 0.625 mg/cm^3 to No. 45-52, 0.3125 mg/cm^3 to No. 53-60, 0.15625 mg/cm^3 to No. 61-68. • 2. PG (0.1 cm^3) was added to 9-12. • 3. Ethanol (0.1 cm^3) was added to No. 5-8. • 4. Deionized water (0.3 cm^3) was added to No. 1-4, deionized water (0.4 cm^3) was added to No. 17-20, 25-28, 33-36, 41-44, 49-52, 57-60, and 65-68. • 5. Liposome (0.2 cm^3) was added to No. 1-4, 5-8, 9-12, 13-16, 21-24, 29-32, 37-40, 45-48, 53-56 and 61-64. • 6. PBS (0.5 cm^3) was added to all tubes. • 7. Ferric chloride (0.1 cm^3, 1 mM) was added to No. 5-8, 9-12, 13-16, 21-24, 29-32, 37-40, 45-48, 53-56, and 61-64. • 8. Ascorbic acid (0.1 cm^3, 1 mM) was added to No. 5-8, 9-12, 13-16, 21-24, 29-32, 37-40, 45-48, 53-56 and 61-64. • 9. The tubes were incubated at 37° C. for 30 min. • 10. BHT (0.1 cm^3, 2%), TBA (0.5 cm^3, 1%) and HCl (0.5 cm^3, 25%) were added to all tubes. • 11. The tubes were heated at 85-90° C. for […]. • 12. The tubes were removed from heater and cooled. • 13. N-Butanol (2.5 cm^3) was added to all tubes. The tubes were then shaken to mix and spun at 3500 rpm at room temperature for 10 min. • 14. N-Butanol (2.5 cm^3) was removed and placed in cuvettes. • 15. Absorbance at 532 nm on a spectrophotometer was recorded, using n-butanol as blank. • 16. The mean and standard deviation were calculated. The % inhibition was calculated using equation (1).
[formula] • All data are expressed and mean±SEM (n=4). % inhibition was used to construct the graph and calculate IC50.

[3] = Homo sapiens, Keratinocyte, 72 h, HPV-16 immortalized human keratinocytes, 3 days incubation
[4] = Homo sapiens, Keratinocyte, 72 h
[5] = HPV-16 immortalized human keratinocytes, 3 days incubation

Molecule	IC50 [1, 3] [µM]	IC50 [2] [µM]	anti-proliferative activity (in words) [1]	antioxidant activity (in words) [2]	IC50 [1, 4] [µM]	IC50 [1, 5] [µM]
COc1cc(OC)c2[nH]ccc2c1C1C=NN(C(C)=O)C1 (stereo not drawn) [1-Acetyl-4,5-dihydro-4-(5′,7′-dimethoxyindol-4′-yl)-1H-pyrazole]	355	1790				
COc1ccc2[nH]cc(C3C=NN(C(C)=O)C3)c2c1 (stereo not drawn) [1-Acetyl-4,5-dihydro-4-(5′-methoxyindol-3′-yl)-1H-pyrazole]	150	210	much more activity than melatonin	almost the same antioxidant activity as melatonin		
COc1ccc2[nH]cc(C=C[N+](=O)[O-])c2c1OC [4,5-Dimethoxy-3-(2-nitroethenyl)-indole]	22	440	very low IG50 values comparative to dithranol			
COc1ccc2[nH]cc(C(C[N+](=O)[O-])C[N+](=O)[O-])c2c1OC [4,5-Dimethoxy-3-bis(nitromethyl)methylindole]		1910			126	
COc1ccc2[nH]cc(CCN)c2c1OC [4,5-Dimethoxytryptamine]	< 100	97				82.5
COc1cc(OC)c2[nH]ccc2c1CCN [4-(2-Aminoethyl)-5,7-dimethoxyindole]	< 100	51				53.9
COc1ccc2[nH]cc(CCNC(C)=O)c2c1OC [4-Methoxymelatonin]	119	280	much more activity than melatonin	almost the same antioxidant activity as melatonin		
COc1cc(OC)c2[nH]cc(C=C[N+](=O)[O-])c2c1 [5,7-Dimethoxy-3-(2-nitroethenyl)-indole]	13.5	810	very low IG50 values comparative to dithranol			
COc1cc(OC)c2[nH]cc(C(C[N+](=O)[O-])C[N+](=O)[O-])c2c1 [5,7-Dimethoxy-3-bis(nitromethyl)methylindole]		1660	anti-proliferative effect		20.2	
COc1cc(OC)c2[nH]ccc2c1C=C[N+](=O)[O-] [5,7-Dimethoxy-4-(2-nitroethenyl)-indole]	6.62	600	very low IG50 values comparative to dithranol			
COc1cc(OC)c2[nH]ccc2c1C(C[N+](=O)[O-])C[N+](=O)[O-] [5,7-Dimethoxy-4-{2′-nitro-1′-(nitromethyl)ethyl}indole]		3970			145	
COc1ccc2[nH]cc(C=C[N+](=O)[O-])c2c1 [5-Methoxy-3-(2-nitroethenyl)-indole]	15.5	2510	anti-proliferative effect			
COc1ccc(N)c(C(=O)CCNC(C)=O)c1 [AMK, reference compound]		280				408
COc1ccc2[nH]cc(CCNC(C)=O)c2c1 [Melatonin]	> 862		inactive			
CC(=O)NCCc1c[nH]c2ccc(O)cc12 [N-Acetylseratonin, N-acetylserotonin, reference compound]		750	inactive			> 917
NCCc1c[nH]c2ccc(O)cc12 [serotonin, reference compound]			inactive			
N-ethylformylmelatonin			much more activity than melatonin	almost the same antioxidant activity as melatonin		
